How the values were obtained:
[1] = biological target: T1, K2P2.1 (TREK-1) (Mus musculus, UniProt P97438); experiment: Two-electrode voltage clamp of Xenopus oocytes expressing K2P2.1 (TREK-1); assay type: cell-based, Murine; settings: Xenopus oocytes; for effect on K2P2.1 (TREK-1) function / activity (in words): two-electrode voltage clamp
T1 construct: expressed in transfected cells; host or cells: Xenopus oocytes (cRNA injection, pGEMHE/pMO)
T1 sequence (P97438 1-411 isoform P97438-2): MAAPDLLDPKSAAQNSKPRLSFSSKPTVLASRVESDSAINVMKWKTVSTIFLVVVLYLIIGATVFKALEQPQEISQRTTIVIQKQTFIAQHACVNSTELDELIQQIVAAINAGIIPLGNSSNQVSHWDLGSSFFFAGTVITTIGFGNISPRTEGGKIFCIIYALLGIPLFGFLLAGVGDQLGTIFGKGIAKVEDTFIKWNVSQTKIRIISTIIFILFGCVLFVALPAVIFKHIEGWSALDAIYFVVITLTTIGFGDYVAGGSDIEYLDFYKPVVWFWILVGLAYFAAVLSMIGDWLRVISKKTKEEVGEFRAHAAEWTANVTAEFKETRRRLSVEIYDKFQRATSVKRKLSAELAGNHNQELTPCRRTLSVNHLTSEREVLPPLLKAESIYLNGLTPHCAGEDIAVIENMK
Protocol: (§1) Two-electrode voltage clamp recordings were performed from defolliculated stage V-VI Xenopus oocytes 24-48 hours after injection with 0.015-6.0 ng cRNA, using microelectrodes (0.3-3.0 MΩ) filled with 3M KCl. […] Recording solutions (mM): 2K (96 NaCl, 2 KCl, 1.8 CaCl2, 2 MgCl2), 90K (90 KCl, 8 NaCl, 1.8 CaCl2, 2 MgCl2), were buffered 5 mM HEPES pH 7.4. For K2P recordings, currents we elicited by a 1 second long ramp from −150 to +50 mV from a holding potential of −80 mV (2K), or −100 to +50 mV from a holding potential of 0 mV (90K). For KCNQ2 recordings, currents were elicited by a step protocol from −120 to 60 mV, in 20 mV increments, from a holding potential of −80 mV. […] Currents were elicited by a 1 second long ramp from −150 to +50 mV from a holding potential of −80 mV.

[2] = biological target: T2, TREK-1 (Mus musculus, UniProt P97438); experiment: Modulation of TREK-1 by select compounds (agonist activity), Table 3; assay type: cell-based, Murine; settings: for EC50: agonist activity on TREK-1
T2 construct: expressed in transfected cells
T2 sequence (P97438 1-411 isoform P97438-2): T1 sequence (P97438 1-411 isoform P97438-2)
Protocol: as §1

Structure (SMILES) | comments (comparison with ML67-33 / ML67-142, dose-response remark) [2] | EC50 [2] [µM] | % activity at 50 μM [2] [%] | other results
O=C(O)CCn1c2ccccc2c2ccccc21 [ML67-2, 3-carbazol-9-ylpropanoic acid] |  |  |  | Emax (fold) at 500 μM ([1]; at 500 μM): 1.3 ± 0.1 at 500 μM fold; effect on K2P2.1 (TREK-1) function / activity (in words) [1]: reduced activity
O=C(O)CCn1c2ccccc2c2cc(I)ccc21 [ML67-14, 3-(3-iodocarbazol-9-yl)propanoic acid] | No plateau | > 500 |  | 
O=C(O)CCCn1c2ccc(Cl)cc2c2cc(Cl)ccc21 [ML67-15, 4-(3,6-dichlorocarbazol-9-yl) butanoic acid] |  |  |  | Emax (fold) at 200 μM ([1]; at 200 μM): 4.7 ± 0.9 at 200 μM fold; effect on K2P2.1 (TREK-1) function / activity (in words) [1]: did not significantly improve potency
Clc1ccc2c(c1)c1cc(Cl)ccc1n2CCc1nnn[nH]1 [ML67-18, 3,6-dichloro-9-[2-(1H-tetrazol-5-yl)ethyl]carbazole] |  | 125 |  | Emax (fold) ([1]; fold over basal current, no concentration stated): ~18 fold
O=C(O)CCN1c2ccc(Cl)cc2Sc2cc(Cl)ccc21 [ML67-26, 3-(3,7-dichloro-phenothiazin-10-yl)propanoic acid] | No plateau | ~200 |  | 
Clc1ccc2c(c1)c1cc(Cl)ccc1n2[C@H]1C[C@H](c2nnn[nH]2)C1 [ML67-30, 3,6-dichloro-9-[3-(1H-tetrazol-5-yl)cyclobutyl] carbazole (trans)] |  | < 125 |  | 
Brc1ccc2c3ccc(Br)cc3n(CCc3nnn[nH]3)c2c1 [ML67-34, 2,7-dibromo-9-[2-(1H-tetrazol-5-yl)ethyl]carbazole] | Not better than ML67-33 | > 38.5 | 13.4 | 
c1ccc2c(c1)Oc1ccccc1N2CCc1nnn[nH]1 [ML67-35, 10-[2-(1H-tetrazol-5-yl)ethyl] phenoxazine] | Not better than ML67-33 | > 38.5 | 17.8 | 
c1ccc2c(c1)Sc1ccccc1N2CCc1nnn[nH]1 [ML67-36, 10-[2-(1H-tetrazol-5-yl)ethyl] phenothiazine] |  | > 38.5 |  | 
Brc1ccc2c(c1)Sc1cc(Br)ccc1N2CCc1nnn[nH]1 [ML67-37, 3,7-dibromo-10-[2-(1H-tetrazol-5-yl)ethyl] phenothiazine] | Not better than ML67-33 | > 38.5 | 96 | 
Brc1ccc2c(c1)Oc1cc(Br)ccc1N2CCc1nnn[nH]1 [ML67-38, 3,7-dibromo-10-[2-(1H-tetrazol-5-yl)ethyl] phenoxazine] | Not better than ML67-33 | > 38.5 | 68.8 | 
CC1(C)c2ccccc2N(CCc2nnn[nH]2)c2ccccc21 [ML67-39, 9,9-dimethyl-10-[2-(1H-tetrazol-5-yl)ethyl]acridine] | Not better than ML67-33 | > 38.5 | 29.2 | 
Clc1ccc2c(c1)C1(CCCC1)c1cc(Cl)ccc1N2CCc1nnn[nH]1 [ML67-138, 2,7-dichloro-10-[2-(1H-tetrazol-5-yl)ethyl]spiro [acridine-9,1′-cyclopentane]] |  | 18.3 |  | 
Clc1ccc2c(c1)C1(CCOCC1)c1cc(Cl)ccc1N2CCc1nnn[nH]1 [ML67-139, 2,7-dichloro-10-[2-(1H-yl)ethyl]spiro [acridine-9,4′-oxane]] | Not better than ML67-33 | > 38.5 | 60.7 | 
O=C(O)CCN1c2ccc(Cl)cc2C2(CCCCC2)c2cccc(Cl)c21 [ML67-140, 3-(2,5-dichlorospiro [acridine-9,1′-cyclohexane]-10-yl)propanoic acid] | Not better than ML67-33 | > 38.5 | 57.7 | 
O=C(O)CCN1c2ccc(Cl)cc2C2(CCCCC2)c2cc(Cl)ccc21 [ML67-141, 3-(2,7-dichlorospiro [acridine-9,1′-cyclohexane]-10-yl)propanoic acid] | Better than ML67-33; not better than (ML67-142) | 8.6 to 38.5 |  | 
Clc1ccc2c(c1)C1(CCCCC1)c1cc(Cl)ccc1N2CCc1nnn[nH]1 [ML67-142, 2,7-dichloro-10-[2-(1H-tetrazol-5-yl)ethyl]spiro [acridine-9,1′-cyclohexane]] |  | 8.6 |  | 
Clc1ccc2c(c1)C1(CCCCC1)c1cccc(Cl)c1N2CCc1nnn[nH]1 [ML67-143, 2,5-dichloro-10-[2-(1H-tetrazol-5-yl)ethyl]spiro [acridine-9,1′-cyclohexane]] | Better than ML67-33; Not better than (ML67-142) | 8.6 to 38.5 |  | 
c1ccc2c(c1)N(CCc1nnn[nH]1)c1ccccc1C21CCCCC1 [ML67-144, 10-[2-(1H-tetrazol-5-yl)ethyl]spiro [acridine-9,1′-cyclohexane]] | Not better than ML67-33 | > 38.5 | 32.3 | 
Brc1ccc2c(c1)C1(CCCCC1)c1cc(Br)ccc1N2CCc1nnn[nH]1 [ML67-145, 2,7-dibromo-10-[2-(1H-1,2,3,4-tetrazol-5-yl)ethyl]-10H-spiro[acridine-9,1′-cyclohexane]] | Better than ML67-33; Not better than (ML67-142) | 8.6 to 38.5 |  | 
OCc1ccc2c(c1)C1(CCCCC1)c1cc(Br)ccc1N2CCc1nnn[nH]1 [ML67-146, 2-bromo-10-[2-(1H-1,2,3,4-tetrazol-5-yl)ethyl]-10H-spiro[acridine-9,1′-cyclohexane]-7-ylmethanol] | Not better than ML67-33 | > 38.5 | 25.9 | 
O=C(O)CCN1c2ccc(Br)cc2C2(CCCCC2)c2cc(Br)ccc21 [ML67-147, 3-{2,7-dibromo-10H-spiro[acridine-9,1′-cyclohexane]-10-yl}propanoic acid] | Not better than ML67-33 | > 38.5 | 84.1 | 
CS(=O)(=O)NC(=O)CCN1c2ccc(Br)cc2C2(CCCCC2)c2cc(Br)ccc21 [ML67-148, 3-{2,7-dibromo-10H-spiro[acridine-9,1′-cyclohexane]-10-yl}-N-methanesulfonyl-propanamide] | Better than ML67-33; Not better than (ML67-142) | 8.6 to 38.5 |  | 
C#Cc1ccc(S(=O)(=O)NC(=O)CCN2c3ccc(Br)cc3C3(CCCCC3)c3cc(Br)ccc32)cc1 [ML67-150, 3-{2,7-dibromo-10H-spiro[acridine-9,1′-cyclohexane]-10-yl}-N-(4-ethynyl-benzenesulfonyl) propanamide] | Not better than ML67-33 | > 38.5 |  | 
O=C(O)CCC(CN1c2ccc(Br)cc2C2(CCCCC2)c2cc(Br)ccc21)C(=O)O (stereo not drawn) [ML67-152, 2-{2,7-dibromo-10H-spiro[acridine-9,1′-cyclohexane]-10-ylmethyl} pentanedioic acid] | No better than ML67-33 | > 38.5 | 45 | 

Source: patent publication US9862684B2, “Modulation of K2P channels” (The Regents of the University of California, priority 2013, dated 2018)
